From ChEMBL document CHEMBL1201862, “PubChem BioAssay data set” (2004)
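A five-concentration, 48-hour dose response in 96-well plates underlies each endpoint, interpolated linearly between surrounding concentrations. GI50 marks 50% less growth.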 Activity calls are given as the source filed them. No stated cut-off is given here; in the data, active = GI50 up to about 1.1 µM and inactive = higher.

Tests used:
Experiment in all cases: inhibition of tumour cell growth, NCI panel, 48 h
[1] = tested on: HOP-62
[2] = tested on: SNB-75
[3] = tested on: HCT-15
[4] = tested on: ACHN
[5] = tested on: M14
[6] = tested on: OVCAR-8
[7] = tested on: UO-31
[8] = tested on: IGROV-1
[9] = tested on: MOLT-4
[10] = tested on: DU-145
[11] = tested on: SN12C
[12] = tested on: RXF 393
[13] = tested on: HT-29
[14] = tested on: A549
[15] = tested on: PC-3
[16] = tested on: MDA-MB-435
[17] = tested on: OVCAR-5
[18] = tested on: OVCAR-3
[19] = tested on: COLO 205
[20] = tested on: MCF7
[21] = tested on: LOX IMVI
[22] = tested on: SF-539
[23] = tested on: Malme-3M
[24] = tested on: NCI-H460
[25] = tested on: CAKI-1
[26] = tested on: SK-OV-3
[27] = tested on: SK-MEL-28
[28] = tested on: TK-10
[29] = tested on: U-251
[30] = tested on: K562
[31] = tested on: KM12
[32] = tested on: HCT-116
[33] = tested on: SK-MEL-2
[34] = tested on: Hs-578T
[35] = tested on: NCI-H522
[36] = tested on: OVCAR-4
[37] = tested on: 786-0
[38] = tested on: UACC-257
[39] = tested on: UACC-62
[40] = tested on: MDA-MB-231
[41] = tested on: RPMI-8226
[42] = tested on: SF-268
[43] = tested on: NCI-H226
[44] = tested on: T47D
[45] = tested on: EKVX
[46] = tested on: A498
[47] = tested on: NCI-H23
[48] = tested on: CCRF-CEM
[49] = tested on: SW-620
[50] = tested on: NCI/ADR-RES
[51] = tested on: BT-549
[52] = tested on: SF-295
[53] = tested on: SR
[54] = tested on: SNB-19
[55] = tested on: HL-60
[56] = tested on: HCC 2998
[57] = tested on: HOP-92
[58] = tested on: SK-MEL-5

Compound: COC(=O)C1=C(C(=O)Nc2cccnc2Cl)N(c2ccc(OC)cc2[N+](=O)[O-])C(c2ccc(C)cc2)=CC1c1ccc(OC)cc1OC (stereo not drawn)
- GI50 [1]: 23300 nM (inactive)
- GI50 [2]: 14200 nM (inactive)
- GI50 [3]: 4270 nM
- GI50 [4]: 19100 nM (inactive)
- GI50 [5]: 13700 nM (inactive)
- GI50 [6]: 8790 nM (inactive)
- GI50 [7]: 12400 nM (inactive)
- GI50 [8]: 5940 nM (inactive)
- GI50 [9]: 7940 nM (inactive)
- GI50 [10]: 23000 nM (inactive)
- GI50 [11]: 15400 nM (inactive)
- GI50 [12]: 3130 nM (inactive)
- GI50 [13]: 3890 nM (inactive)
- GI50 [14]: 6300 nM (inactive)
- GI50 [15]: 27500 nM (inactive)
- GI50 [16]: 5640 nM (inactive)
- GI50 [17]: 29000 nM (inactive)
- GI50 [18]: 8570 nM (inactive)
- GI50 [19]: 15500 nM (inactive)
- GI50 [20]: 2150 nM (inactive)
- GI50 [21]: 2820 nM (inactive)
- GI50 [22]: 4760 nM (inactive)
- GI50 [23]: 12600 nM (inactive)
- GI50 [24]: 23900 nM (inactive)
- GI50 [25]: 36900 nM (inactive)
- GI50 [26]: 23700 nM (inactive)
- GI50 [27]: 59600 nM (inactive)
- GI50 [28]: 20700 nM (inactive)
- GI50 [29]: 6410 nM (inactive)
- GI50 [30]: 4670 nM (inactive)
- GI50 [31]: 2920 nM (inactive)
- GI50 [32]: 9980 nM (inactive)
- GI50 [33]: 17900 nM (inactive)
- GI50 [34]: 25300 nM (inactive)
- GI50 [35]: 2590 nM (inactive)
- GI50 [36]: 33600 nM (inactive)
- GI50 [37]: 12000 nM (inactive)
- GI50 [38]: 25800 nM (inactive)
- GI50 [39]: 24300 nM (inactive)
- GI50 [40]: 17900 nM (inactive)
- GI50 [41]: 2370 nM (inactive)
- GI50 [42]: 24600 nM (inactive)
- GI50 [43]: 12900 nM (inactive)
- GI50 [44]: 10000 nM (inactive)
- GI50 [45]: 21900 nM (inactive)
- GI50 [46]: 16700 nM (inactive)
- GI50 [47]: 22100 nM (inactive)
- GI50 [48]: 4530 nM (inactive)
- GI50 [49]: 4660 nM (inactive)
- GI50 [50]: 17600 nM (inactive)
- GI50 [51]: 8850 nM (inactive)
- GI50 [52]: 23200 nM (inactive)
- GI50 [53]: 2850 nM (inactive)
- GI50 [54]: 32100 nM (inactive)
- GI50 [55]: 4610 nM (inactive)
- GI50 [56]: 8610 nM (inactive)
- GI50 [57]: 31100 nM (inactive)
- GI50 [58]: 10000 nM (inactive)

Compound: COc1cc2c(cc1OCCCOc1cc3c(cc1OC)C(=O)N1CCC[C@H]1CN3)N=C[C@@H]1CCCN1C2=O
- GI50 [1]: 31.7 nM (active)
- GI50 [2]: 179 nM (active)
- GI50 [3]: 1860 nM
- GI50 [4]: 98.6 nM (active)
- GI50 [5]: 75.3 nM (active)
- GI50 [6]: 232 nM (active)
- GI50 [7]: 2170 nM (inactive)
- GI50 [8]: 201 nM (active)
- GI50 [9]: 11 nM (active)
- GI50 [10]: 357 nM (active)
- GI50 [11]: 189 nM (active)
- GI50 [12]: 49.7 nM (active)
- GI50 [13]: 244 nM (active)
- GI50 [14]: 700 nM (active)
- GI50 [15]: 279 nM (active)
- GI50 [16]: 117 nM (active)
- GI50 [17]: 182 nM (active)
- GI50 [18]: 92.9 nM (active)
- GI50 [19]: 108 nM (active)
- GI50 [20]: < 39.1 nM (active)
- GI50 [21]: 37.1 nM (active)
- GI50 [22]: 24 nM (active)
- GI50 [23]: 115 nM (active)
- GI50 [24]: 228 nM (active)
- GI50 [25]: 324 nM (active)
- GI50 [26]: 540 nM (active)
- GI50 [27]: 202 nM (active)
- GI50 [28]: 163 nM (active)
- GI50 [29]: 18.9 nM (active)
- GI50 [30]: 48.2 nM (active)
- GI50 [31]: 89.3 nM (active)
- GI50 [32]: 124 nM (active)
- GI50 [33]: 97.7 nM (active)
- GI50 [34]: 267 nM (active)
- GI50 [35]: < 12.7 nM (active)
- GI50 [36]: 670 nM (active)
- GI50 [37]: 65.6 nM (active)
- GI50 [38]: 206 nM (active)
- GI50 [39]: 100 nM (active)
- GI50 [40]: 145 nM (active)
- GI50 [42]: 23.4 nM (active)
- GI50 [43]: 78.2 nM (active)
- GI50 [44]: 30.9 nM (active)
- GI50 [45]: 1890 nM (inactive)
- GI50 [47]: 158 nM (active)
- GI50 [48]: < 10 nM (active)
- GI50 [49]: 127 nM (active)
- GI50 [50]: 3110 nM (inactive)
- GI50 [51]: 80.2 nM (active)
- GI50 [52]: 123 nM (active)
- GI50 [53]: < 10 nM (active)
- GI50 [54]: 86.9 nM (active)
- GI50 [55]: 29.1 nM (active)
- GI50 [57]: 145 nM (active)
- GI50 [58]: 126 nM (active)
